Source: patent US9604935B2, “Deuterated phenyl amino pyrimidine compound and pharmaceutical composition containing the same” (Suzhou Zelgen Biopharmaceuticals Co., Ltd., priority 2013, dated 2017)
Read-outs that look alike come from different tables or passages of the source.

Experiment: Pharmacokinetic evaluation in rats
Format: in vivo
Conditions: male, Sprague-Dawley, rat, plasma, po, 3 mg/kg, 3 mg/kg by gavage
Procedure: 12 male Sprague-Dawley rats, 7-8 weeks old, of approximately 200 g body weight, were divided into three groups, four in each group.
Rats were feed with standard feed, and were given water, and were started to fast 16 hours before the test. The drug was dissolved in PEG400 and dimethylsulfoxide. Orbital blood collection was conducted, and the blood collection time is 0.25 hour, 0.5 hour, 1 hour, 2 hour, 4 hour, 6 hour, 8 hour, 12 hour, 24 hour, 36 hour and 48 hour after administration.
After inhalation of ether, the rats were shortly anesthesiaed; 300 μL of blood were collected from orbit into a test tube. There were 30 μL of 1% heparin saline solutions in the test tube. Before use, test tubes were dried overnight at 60° C. After the blood sample was collected in the subsequent time point, rats were anesthetized with ether and sacrificed.
After blood sampling, the tube was gently inverted at least 5 times immediately to ensure adequate mixing, and was placed on ice. Blood samples were 5000 rpm centrifuged at 4° C. for 5 minutes to separate the plasma and red blood cells. 100 μL of plasma was pipetted into a clean plastic centrifuge tube, and the name of compounds and the time point were indicated. Plasma was stored in −80° C. before use for the analysis. The concentration of the compound of the invention in plasma was determined with LC-MS/MS. The pharmacokinetic parameters were calculated based on the blood drug concentration of each animal at different time points.

[1] = group G1, Mean of 4 rats, read-out: AUCINF_obs
[2] = group G1, rat 1, read-out: AUCINF_obs
[3] = group G1, rat 2, read-out: AUCINF_obs
[4] = group G1, rat 3, read-out: AUCINF_obs
[5] = group G1, rat 4, read-out: AUCINF_obs
[6] = group G3, Mean of 4 rats, read-out: AUCINF_obs
[7] = group G3, rat 9, read-out: AUCINF_obs
[8] = group G3, rat 10, read-out: AUCINF_obs
[9] = group G3, rat 11, read-out: AUCINF_obs
[10] = group G3, rat 12, read-out: AUCINF_obs
[11] = group G2, Mean of 4 rats, read-out: AUCINF_obs
[12] = group G2, rat 5, read-out: AUCINF_obs
[13] = group G2, rat 6, read-out: AUCINF_obs
[14] = group G2, rat 7, read-out: AUCINF_obs
[15] = group G2, rat 8, read-out: AUCINF_obs

[2H]C([2H])(C#N)NC(=O)c1ccc(-c2ccnc(Nc3ccc(N4CCOCC4)cc3)n2)cc1 [example 8, N-(cyano(d2-methyl))-4-(2-(4-morpholinophenylamino)pyrimidin-4-yl)benzamide]
AUC(0-t) (group G1 (Table 1), mean±SD): 2090 ± 1220 ng·h/mL
Cmax (group G1 (Table 1), mean±SD): 309 ± 175 ng/mL
AUC(0-t) (group G1, Mean of 4 rats): 2090 ng·h/mL
Cmax (group G1, Mean of 4 rats): 309 ng/mL
Tmax (group G1, Mean of 4 rats): 2.56 h
AUC(0-inf) [1]: 2120 ng·h/mL
AUC(0-t) (group G1, rat 1): 3090 ng·h/mL
Cmax (group G1, rat 1): 469 ng/mL
Tmax (group G1, rat 1): 0.25 h
AUC(0-inf) [2]: 3100 ng·h/mL
AUC(0-t) (group G1, rat 2): 574 ng·h/mL
Cmax (group G1, rat 2): 101 ng/mL
Tmax (group G1, rat 2): 4 h
AUC(0-inf) [3]: 616 ng·h/mL
AUC(0-t) (group G1, rat 3): 3050 ng·h/mL
Cmax (group G1, rat 3): 438 ng/mL
Tmax (group G1, rat 3): 4 h
AUC(0-inf) [4]: 3130 ng·h/mL
AUC(0-t) (group G1, rat 4): 1630 ng·h/mL
Cmax (group G1, rat 4): 227 ng/mL
Tmax (group G1, rat 4): 2 h
AUC(0-inf) [5]: 1640 ng·h/mL

[2H]C([2H])(C#N)NC(=O)c1ccc(-c2ccnc(Nc3ccc(N4C([2H])([2H])C([2H])([2H])OC([2H])([2H])C4([2H])[2H])cc3)n2)cc1 [example 3, N-(cyano(d2-methyl))-4-(2-(4-(d8-morpholino)phenylamino)pyrimidin-4-yl)benzamide]
AUC(0-t) (group G3 (Table 3), mean±SD): 2720 ± 922 ng·h/mL
Cmax (group G3 (Table 3), mean±SD): 447 ± 170 ng/mL
AUC(0-t) (group G3, Mean of 4 rats): 2720 ng·h/mL
Cmax (group G3, Mean of 4 rats): 447 ng/mL
Tmax (group G3, Mean of 4 rats): 3.5 h
AUC(0-inf) [6]: 2790 ng·h/mL
AUC(0-t) (group G3, rat 9): 4100 ng·h/mL
Cmax (group G3, rat 9): 694 ng/mL
Tmax (group G3, rat 9): 4 h
AUC(0-inf) [7]: 4180 ng·h/mL
AUC(0-t) (group G3, rat 10): 2300 ng·h/mL
Cmax (group G3, rat 10): 419 ng/mL
Tmax (group G3, rat 10): 4 h
AUC(0-inf) [8]: 2350 ng·h/mL
AUC(0-t) (group G3, rat 11): 2190 ng·h/mL
Cmax (group G3, rat 11): 329 ng/mL
Tmax (group G3, rat 11): 2 h
AUC(0-inf) [9]: 2260 ng·h/mL
AUC(0-t) (group G3, rat 12): 2290 ng·h/mL
Cmax (group G3, rat 12): 344 ng/mL
Tmax (group G3, rat 12): 4 h
AUC(0-inf) [10]: 2350 ng·h/mL

[2H]C1([2H])OC([2H])([2H])C([2H])([2H])N(c2ccc(Nc3nccc(-c4ccc(C(=O)NCC#N)cc4)n3)cc2)C1([2H])[2H] [example 1, N-(cyanomethyl)-4-(2-(4-(d8-morpholino)phenylamino)pyrimidine-4-yl)benzamide]
AUC(0-t) (group G3 (Table 3), mean±SD): 3960 ± 1480 ng·h/mL
Cmax (group G3 (Table 3), mean±SD): 653 ± 275 ng/mL
AUC(0-t) (group G3, Mean of 4 rats): 3960 ng·h/mL
Cmax (group G3, Mean of 4 rats): 653 ng/mL
Tmax (group G3, Mean of 4 rats): 3.5 h
AUC(0-inf) [6]: 4060 ng·h/mL
AUC(0-t) (group G3, rat 9): 6170 ng·h/mL
Cmax (group G3, rat 9): 1060 ng/mL
Tmax (group G3, rat 9): 4 h
AUC(0-inf) [7]: 6300 ng·h/mL
AUC(0-t) (group G3, rat 10): 3250 ng·h/mL
Cmax (group G3, rat 10): 596 ng/mL
Tmax (group G3, rat 10): 4 h
AUC(0-inf) [8]: 3370 ng·h/mL
AUC(0-t) (group G3, rat 11): 3160 ng·h/mL
Cmax (group G3, rat 11): 476 ng/mL
Tmax (group G3, rat 11): 2 h
AUC(0-inf) [9]: 3250 ng·h/mL
AUC(0-t) (group G3, rat 12): 3240 ng·h/mL
Cmax (group G3, rat 12): 483 ng/mL
Tmax (group G3, rat 12): 4 h
AUC(0-inf) [10]: 3320 ng·h/mL

[2H]C1([2H])COCC([2H])([2H])N1c1ccc(Nc2nccc(-c3ccc(C(=O)NCC#N)cc3)n2)cc1 [example 5, N-(cyanomethyl)-4-(2-(4-(2′,2′,6′,6′-d4-morpholino)phenylamino)pyrimidin-4-yl)benzamide]
AUC(0-t) (group G2 (Table 2), mean±SD): 5390 ± 1230 ng·h/mL
Cmax (group G2 (Table 2), mean±SD): 972 ± 307 ng/mL
AUC(0-t) (group G2, Mean of 4 rats): 5390 ng·h/mL
Cmax (group G2, Mean of 4 rats): 972 ng/mL
Tmax (group G2, Mean of 4 rats): 3.5 h
AUC(0-inf) [11]: 5440 ng·h/mL
AUC(0-t) (group G2, rat 5): 6820 ng·h/mL
Cmax (group G2, rat 5): 1410 ng/mL
Tmax (group G2, rat 5): 2 h
AUC(0-inf) [12]: 6850 ng·h/mL
AUC(0-t) (group G2, rat 6): 5460 ng·h/mL
Cmax (group G2, rat 6): 922 ng/mL
Tmax (group G2, rat 6): 4 h
AUC(0-inf) [13]: 5490 ng·h/mL
AUC(0-t) (group G2, rat 7): 5470 ng·h/mL
Cmax (group G2, rat 7): 875 ng/mL
Tmax (group G2, rat 7): 4 h
AUC(0-inf) [14]: 5520 ng·h/mL
AUC(0-t) (group G2, rat 8): 3810 ng·h/mL
Cmax (group G2, rat 8): 686 ng/mL
Tmax (group G2, rat 8): 4 h
AUC(0-inf) [15]: 3900 ng·h/mL

[2H]C([2H])(C#N)NC(=O)c1ccc(-c2ccnc(Nc3ccc(N4CC([2H])([2H])OC([2H])([2H])C4)cc3)n2)cc1 [example 6]
AUC(0-t) (group G1 (Table 1), mean±SD): 1900 ± 1100 ng·h/mL
Cmax (group G1 (Table 1), mean±SD): 282 ± 158 ng/mL
AUC(0-t) (group G1, Mean of 4 rats): 1900 ng·h/mL
Cmax (group G1, Mean of 4 rats): 282 ng/mL
Tmax (group G1, Mean of 4 rats): 2.56 h
AUC(0-inf) [1]: 1940 ng·h/mL
AUC(0-t) (group G1, rat 1): 2730 ng·h/mL
Cmax (group G1, rat 1): 423 ng/mL
Tmax (group G1, rat 1): 0.25 h
AUC(0-inf) [2]: 2740 ng·h/mL
AUC(0-t) (group G1, rat 2): 514 ng·h/mL
Cmax (group G1, rat 2): 94.6 ng/mL
Tmax (group G1, rat 2): 4 h
AUC(0-inf) [3]: 561 ng·h/mL
AUC(0-t) (group G1, rat 3): 2840 ng·h/mL
Cmax (group G1, rat 3): 403 ng/mL
Tmax (group G1, rat 3): 4 h
AUC(0-inf) [4]: 2920 ng·h/mL
AUC(0-t) (group G1, rat 4): 1520 ng·h/mL
Cmax (group G1, rat 4): 207 ng/mL
Tmax (group G1, rat 4): 2 h
AUC(0-inf) [5]: 1530 ng·h/mL

N#CCNC(=O)c1ccc(-c2ccnc(Nc3ccc(N4CCOCC4)cc3)n2)cc1 [example 9, N-(cyanomethyl)-4-(2-(4-morpholinophenylamino)pyrimidin-4-yl)benzamide, reference compound]
AUC(0-t) (group G1 (Table 1), mean±SD): 1620 ± 932 ng·h/mL
Cmax (group G1 (Table 1), mean±SD): 245 ± 140 ng/mL
AUC(0-t) (group G1, Mean of 4 rats): 1620 ng·h/mL
Cmax (group G1, Mean of 4 rats): 245 ng/mL
Tmax (group G1, Mean of 4 rats): 2.56 h
AUC(0-inf) [1]: 1650 ng·h/mL
AUC(0-t) (group G1, rat 1): 2290 ng·h/mL
Cmax (group G1, rat 1): 368 ng/mL
Tmax (group G1, rat 1): 0.25 h
AUC(0-inf) [2]: 2300 ng·h/mL
AUC(0-t) (group G1, rat 2): 443 ng·h/mL
Cmax (group G1, rat 2): 79.4 ng/mL
Tmax (group G1, rat 2): 4 h
AUC(0-inf) [3]: 480 ng·h/mL
AUC(0-t) (group G1, rat 3): 2440 ng·h/mL
Cmax (group G1, rat 3): 354 ng/mL
Tmax (group G1, rat 3): 4 h
AUC(0-inf) [4]: 2510 ng·h/mL
AUC(0-t) (group G1, rat 4): 1320 ng·h/mL
Cmax (group G1, rat 4): 180 ng/mL
Tmax (group G1, rat 4): 2 h
AUC(0-inf) [5]: 1330 ng·h/mL
AUC(0-t) (group G2 (Table 2), mean±SD): 3210 ± 744 ng·h/mL
Cmax (group G2 (Table 2), mean±SD): 589 ± 190 ng/mL
AUC(0-t) (group G2, Mean of 4 rats): 3210 ng·h/mL
Cmax (group G2, Mean of 4 rats): 589 ng/mL
Tmax (group G2, Mean of 4 rats): 3.5 h
AUC(0-inf) [11]: 3240 ng·h/mL
AUC(0-t) (group G2, rat 5): 4080 ng·h/mL
Cmax (group G2, rat 5): 858 ng/mL
Tmax (group G2, rat 5): 2 h
AUC(0-inf) [12]: 4110 ng·h/mL
AUC(0-t) (group G2, rat 6): 3320 ng·h/mL
Cmax (group G2, rat 6): 567 ng/mL
Tmax (group G2, rat 6): 4 h
AUC(0-inf) [13]: 3340 ng·h/mL
AUC(0-t) (group G2, rat 7): 3180 ng·h/mL
Cmax (group G2, rat 7): 514 ng/mL
Tmax (group G2, rat 7): 4 h
AUC(0-inf) [14]: 3210 ng·h/mL
AUC(0-t) (group G2, rat 8): 2270 ng·h/mL
Cmax (group G2, rat 8): 415 ng/mL
Tmax (group G2, rat 8): 4 h
AUC(0-inf) [15]: 2300 ng·h/mL
AUC(0-t) (group G3 (Table 3), mean±SD): 2190 ± 814 ng·h/mL
Cmax (group G3 (Table 3), mean±SD): 365 ± 146 ng/mL
AUC(0-t) (group G3, Mean of 4 rats): 2190 ng·h/mL
Cmax (group G3, Mean of 4 rats): 365 ng/mL
Tmax (group G3, Mean of 4 rats): 3.5 h
AUC(0-inf) [6]: 2240 ng·h/mL
AUC(0-t) (group G3, rat 9): 3420 ng·h/mL
Cmax (group G3, rat 9): 579 ng/mL
Tmax (group G3, rat 9): 4 h
AUC(0-inf) [7]: 3480 ng·h/mL
AUC(0-t) (group G3, rat 10): 1800 ng·h/mL
Cmax (group G3, rat 10): 336 ng/mL
Tmax (group G3, rat 10): 4 h
AUC(0-inf) [8]: 1850 ng·h/mL
AUC(0-t) (group G3, rat 11): 1750 ng·h/mL
Cmax (group G3, rat 11): 276 ng/mL
Tmax (group G3, rat 11): 2 h
AUC(0-inf) [9]: 1800 ng·h/mL
AUC(0-t) (group G3, rat 12): 1810 ng·h/mL
Cmax (group G3, rat 12): 270 ng/mL
Tmax (group G3, rat 12): 4 h
AUC(0-inf) [10]: 1840 ng·h/mL
